Assay results taken from patent US10717733B2, “Haloallylamine indole and azaindole derivative inhibitors of lysyl oxidases and uses thereof” (PHARMAXIS LTD., priority 2016, dated 2020).
Structures can show the parent of a compound that is named as a salt.

Tests used:
[1] = test system: primary fibroblasts from confirmed cases of IPF; assay: Collagen cross-link formation in in vitro fibroblastic foci model of IPF; type: cell-based, human; conditions: TGF-β1 stimulated foci, six weeks culture, FIGS. 7a and 7b
Text: The lung tissue of patients with idiopathic pulmonary fibrosis (IPF) is characterised by dense collections of myofibroblasts and extracellular matrix (ECM) termed ‘fibroblastic foci’. Using a novel in vitro model of fibroblastic foci (Jones et al., AJRCCM 191; 2015:A4912) the formation of lysyl oxidase (LOX) mediated collagen cross-links and the effects of the nonselective LOX inhibitor β-aminopropionitrile (BAPN) as well lysyl oxidase like-2 (LOXL2)-selective inhibitors were investigated.
Cultures of primary fibroblasts were grown out from clinical diagnostic biopsies of fibrotic lung and stored in liquid nitrogen. […]
To quantify collagen cross-links (Robins Biochem Soc Trans 2007; 35(5): 849-852; Saito et al Anal. Biochem. 1997; 253: 26-32; Sims, Avery & Bailey Methods in Molecular Biology 2000; vol 139: 11-26), cultures were treated with potassium borohydride to stabilise the reducible immature cross-links, and hydrolysed in 6N HCl at 100° C. for 16 hr. Total collagen content was assessed by hydroxyproline assay. Immature cross-links were assessed by LC/MS/MS and mature pyridinoline cross-links by ELISA. Cross-link data is expressed as moles of cross-link per mole collagen.

[2] = test system: STAM mice, NASH liver fibrosis; assay: Streptozotocin and high fat diet induced liver fibrosis (STAM model); type: in vivo, mouse; conditions: daily oral gavage 10-30 mg/kg, FIG. 6
Protocol: High fat/carbohydrate diet induced liver fibrosis is the most common reason for liver dysfunction and ultimately liver failure. NASH is induced in male mice by a single subcutaneous injection of 200 μg streptozotocin solution 2 days after birth and feeding with high fat diet after 4 weeks of age (STAM™ model).
LOXL2 inhibitor compound 112 was administered by daily oral gavage at doses between 10-30 mg/kg 8 weeks after streptozotocin application. Mice were sacrificed after NASH had been established and whole blood samples were taken via cardiac puncture. Liver samples were collected and washed with cold saline. Liver weight was measured. The left lateral, right and caudate lobes of livers were snap frozen in liquid nitrogen and stored at −80° C. For HE staining, sections were cut from paraffin blocks of liver tissue prefixed in Bouin's solution and stained with Lillie-Mayer's Hematoxylin and eosin solution. NAFLD Activity score (NAS) was calculated according to the criteria of Kleiner (Kleiner D E. et al., Design and validation of a histological scoring system for nonalcoholic fatty liver disease. Hepatology, 2005; 41:1313). To visualize collagen deposition, Bouin's fixed liver sections were stained using picro-Sirius red solution and the area of fibrosis was quantified (See FIG. 6).

Human LOXL2 = Human LOXL2 (Homo sapiens (Human), UniProt Q9Y4K0); assay: LOXL2 inhibition, peroxidase-coupled Amplex Red amine oxidase assay; type: biochemical; conditions: 30 min preincubation at 37° C., putrescine substrate
In short: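 Enzyme in 1.2 M urea, 50 mM sodium borate pH 8.2 with 1 μM mofegiline and 0.5 mM pargyline, preincubated 30 min at 37° C with compound (11-point CRC). Putrescine at twice KM (10 mM for LOXL2) with Amplex Red/HRP; fluorescence (ex 565, em 590) read kinetically 30 min; IC50 from slopes.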

[3] = test system: CCl4 induced liver fibrosis; assay: CCl4 induced liver fibrosis model; type: in vivo, rat; conditions: 0.1-100 mg/Kg
Protocol: An analysis of the use of LOXL2 inhibitors to treat inflammatory/fibrotic diseases is performed through the use of a CCl4 induced liver fibrosis model. Liver injury is frequently followed by complete parenchymal regeneration due to regenerative potency of hepatocytes. Continuous liver injury due to the administration of CCl4 leads to extracellular matrix accumulation, accompanied by recurrent hepatocyte necrosis, inflammation, and regenerative processes, causing liver fibrosis and consequently liver cirrhosis (see Natsume, M., et al., Attenuated liver fibrosis and depressed serum albumin levels in carbon tetrachloride-treated IL-6-deficient mice. J. Leukoc. Biol., 1999, 66, 601-608 also See Yao, Q, Y., et al. Inhibition by curcumin of multiple sites of the transforming growth factor-beta1 signalling pathway ameliorates the progression of liver fibrosis induced by carbon tetrachloride in rats. BMC Complement Altern Med. 2012 Sep. 16; 12(1):156.)
Rats are administered orally with CCl4 at a concentration of 0.25 μL/g in olive oil, 3 times per week for 6 weeks. Compound 25 is given 0.1-100 mg/Kg throughout the period of the experimental procedure or only 3 weeks after CCl4 administration and then throughout the entire study. […]

Sequence of Human LOXL2 (Q9Y4K0 26-774): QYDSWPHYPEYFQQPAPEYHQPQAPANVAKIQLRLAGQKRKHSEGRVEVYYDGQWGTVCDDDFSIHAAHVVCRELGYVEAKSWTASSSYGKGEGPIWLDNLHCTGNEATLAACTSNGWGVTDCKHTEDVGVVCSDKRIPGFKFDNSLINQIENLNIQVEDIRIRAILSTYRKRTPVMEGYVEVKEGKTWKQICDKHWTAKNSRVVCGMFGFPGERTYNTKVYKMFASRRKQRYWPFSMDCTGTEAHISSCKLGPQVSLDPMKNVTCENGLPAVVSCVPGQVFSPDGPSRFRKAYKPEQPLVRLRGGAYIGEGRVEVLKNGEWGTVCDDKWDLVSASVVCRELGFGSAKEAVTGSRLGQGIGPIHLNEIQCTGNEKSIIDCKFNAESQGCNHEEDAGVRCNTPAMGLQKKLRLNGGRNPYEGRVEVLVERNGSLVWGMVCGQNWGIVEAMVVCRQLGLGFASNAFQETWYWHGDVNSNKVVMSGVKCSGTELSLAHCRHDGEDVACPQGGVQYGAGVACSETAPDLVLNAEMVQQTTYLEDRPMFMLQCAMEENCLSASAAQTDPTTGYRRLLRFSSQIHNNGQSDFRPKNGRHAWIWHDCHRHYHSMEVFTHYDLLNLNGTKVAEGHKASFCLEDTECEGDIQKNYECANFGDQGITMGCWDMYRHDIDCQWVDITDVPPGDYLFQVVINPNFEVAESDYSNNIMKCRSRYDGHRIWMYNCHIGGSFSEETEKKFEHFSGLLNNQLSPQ

| SMILES | collagen cross-link formation (immature and mature cross-links) [1] | liver fibrosis (picro-Sirius red area of fibrosis) [2] | IC50 (Human LOXL2) [nM] | inhibition of liver collagen by hydroxyproline analysis ([3]; CCl4 model, statistically significant) [%] | reduction of liver fibrosis by liver sirius red staining with quantification ([3]; rats, CCl4 orally 6 weeks, vs vehicle-treated group) |
| --- | --- | --- | --- | --- | --- |
| Cc1ccc2c(n1)c(-c1cccc(S(C)(=O)=O)c1)c(C)n2C/C(F)=C/CN [Compound 112, (Z)-4-(2,5-dimethyl-3-(3-(methylsulfonyl)phenyl)-1H-pyrrolo[3,2-b]pyridin-1-yl)-3-fluorobut-2-en-1-amine Dihydrochloride] | reduced cross-link formation in a concentration dependent manner | reduce lilver fibrosis | < 300 | – | – |
| CCOC(=O)c1ccc2c(c1)c(-c1cccc(S(=O)(=O)N(C)C)c1)c(C)n2C/C(F)=C/CN [Compound 12, (Z)-ethyl 1-(4-amino-2-fluorobut-2-en-1-yl)-3-(3-(N,N-dimethylsulfamoyl)phenyl)-2-methyl-1H-indole-5-carboxylate] | – | – | < 300 | – | – |
| Cc1c(-c2cccc(S(=O)(=O)N(C)C)c2)c2ncccc2n1C/C(F)=C/CN [Compound 25, (Z)-3-(1-(4-amino-2-fluorobut-2-en-1-yl)-2-methyl-1H-pyrrolo[3,2-b]pyridin-3-yl)-N,N-dimethylbenzenesulfonamide Dihydrochloride] | – | – | < 300 | > 30 | up to 50% |
